According to ChEMBL document CHEMBL5126592, “Design, synthesis and activity against drug-resistant bacteria evaluation of C-20, C-23 modified 5-O-mycaminosyltylonolide derivatives” (Eur J Med Chem, 2022):
Values after ≈ are worked out from the molar mass of the structure shown. Active and inactive are the calls of the source. No cut-off for these calls is given here.

Legend:
[1] = test system: Staphylococcus aureus; assay: Antibacterial activity against Staphylococcus aureus ATCC 25923 infected in kunming mouse assessed as reduction in viable pathogens at 32.5 mg/kg, iv measured after 1 hr; format: functional, organism-based
[2] = test system: Escherichia coli; assay: Antibacterial activity against Escherichia coli ATCC 25922 incubated for 16 to 20 hrs in presence of 50% foetal bovine serum by broth microdilution method; format: functional; conditions: time 16-20 hrs
[3] = test system: Staphylococcus chromogenes; assay: Antibacterial activity against Staphylococcus chromogenes incubated for 16 to 20 hrs by broth microdilution method; format: functional; conditions: time 16-20 hrs
[4] = test system: Staphylococcus aureus; assay: Ratio of MBC to MIC for Staphylococcus aureus ATCC 29213; format: functional
[5] = test system: Escherichia coli; assay: Ratio of MBC to MIC for Escherichia coli ATCC 25922; format: functional
[6] = test system: Staphylococcus aureus; assay: Antibacterial activity against Staphylococcus aureus ATCC 29213 incubated for 16 to 20 hrs using 10^5 CFU/ml bacterial inoculum by broth microdilution method; format: functional; conditions: time 16-20 hrs
[7] = test system: Escherichia coli; assay: Bactericidal activity against Escherichia coli ATCC 25922 incubated for 20 to 24 hrs by CLSI based analysis; format: functional; conditions: time 20-24 hrs
[8] = test system: Escherichia coli; assay: Antibacterial activity against Escherichia coli ATCC 25922 incubated for 16 to 20 hrs using 10^7 CFU/ml bacterial inoculum by broth microdilution method; format: functional; conditions: time 16-20 hrs
[9] = test system: Staphylococcus aureus; assay: Bactericidal activity against Staphylococcus aureus ATCC 29213 incubated for 20 to 24 hrs by CLSI based analysis; format: functional; conditions: time 20-24 hrs
[10] = test system: Staphylococcus aureus; assay: Antibacterial activity against Staphylococcus aureus ATCC 25923 incubated for 16 to 20 hrs by broth microdilution method; format: functional; conditions: time 16-20 hrs
[11] = test system: Pseudomonas aeruginosa; assay: Antibacterial activity against Pseudomonas aeruginosa LTP-3 incubated for 16 to 20 hrs by broth microdilution method; format: functional; conditions: time 16-20 hrs
[12] = test system: Escherichia coli; assay: Antibacterial activity against Escherichia coli ATCC 25922 incubated for 16 to 20 hrs by broth microdilution method; format: functional; conditions: time 16-20 hrs
[13] = test system: Escherichia coli; assay: Antibacterial activity against Escherichia coli incubated for 16 to 20 hrs by broth microdilution method; format: functional; conditions: time 16-20 hrs
[14] = test system: Staphylococcus aureus; assay: Antibacterial activity against Staphylococcus aureus ATCC 29213 incubated for 16 to 20 hrs by broth microdilution method; format: functional; conditions: time 16-20 hrs
[15] = test system: Staphylococcus aureus; assay: Antibacterial activity against Staphylococcus aureus ATCC 29213 at pH 8.6 incubated for 16 to 20 hrs in presence of 10% foetal bovine serum by broth microdilution method; format: functional; conditions: time 16-20 hrs
[16] = test system: Staphylococcus aureus; assay: Antibacterial activity against Staphylococcus aureus ATCC 29213 at pH 8.6 incubated for 16 to 20 hrs in presence of 50% foetal bovine serum by broth microdilution method; format: functional; conditions: time 16-20 hrs
[17] = test system: Escherichia coli; assay: Antibacterial activity against Escherichia coli ATCC 25922 incubated for 16 to 20 hrs using 10^4 CFU/ml bacterial inoculum by broth microdilution method; format: functional; conditions: time 16-20 hrs
[18] = test system: Escherichia coli; assay: Antibacterial activity against Escherichia coli ATCC 25922 incubated for 16 to 20 hrs using 10^3 CFU/ml bacterial inoculum by broth microdilution method; format: functional; conditions: time 16-20 hrs
[19] = test system: Escherichia coli; assay: Antibacterial activity against Escherichia coli ATCC 25922 incubated for 16 to 20 hrs using 10^6 CFU/ml bacterial inoculum by broth microdilution method; format: functional; conditions: time 16-20 hrs
[20] = test system: Staphylococcus aureus; assay: Antibacterial activity against Staphylococcus aureus ATCC 29213 incubated for 16 to 20 hrs using 10^4 CFU/ml bacterial inoculum by broth microdilution method; format: functional; conditions: time 16-20 hrs
[21] = test system: Cronobacter sakazakii; assay: Antibacterial activity against Cronobacter sakazakii ATCC 29544 incubated for 16 to 20 hrs by broth microdilution method; format: functional; conditions: time 16-20 hrs
[22] = test system: Escherichia coli; assay: Antibacterial activity against Escherichia coli ATCC 25922 incubated for 16 to 20 hrs in presence of 10% foetal bovine serum by broth microdilution method; format: functional; conditions: time 16-20 hrs
[23] = test system: Enterococcus faecium; assay: Antibacterial activity against Enterococcus faecium incubated for 16 to 20 hrs by broth microdilution method; format: functional; conditions: time 16-20 hrs
[24] = test system: Escherichia coli; assay: Antibacterial activity against Escherichia coli ATCC 25922 incubated for 16 to 20 hrs in absence of foetal bovine serum by broth microdilution method; format: functional; conditions: time 16-20 hrs
[25] = test system: Escherichia coli; assay: Inhibition of protein synthesis in Escherichia coli ATCC 25922 assessed as reduction in protein content at […] measured upto 12 hrs by microporous enzyme labeling method relative to control; format: functional
[26] = test system: Staphylococcus aureus; assay: Antibacterial activity against Staphylococcus aureus ATCC 29213 at pH 8.6 incubated for 16 to 20 hrs in presence of 25% foetal bovine serum by broth microdilution method; format: functional; conditions: time 16-20 hrs
[27] = test system: Staphylococcus aureus; assay: Antibacterial activity against Staphylococcus aureus ATCC 29213 incubated for 16 to 20 hrs using 10^7 CFU/ml bacterial inoculum by broth microdilution method; format: functional; conditions: time 16-20 hrs
[28] = test system: Staphylococcus aureus; assay: Antibacterial activity against Staphylococcus aureus ATCC 29213 at pH 8.6 incubated for 16 to 20 hrs in presence of 5% foetal bovine serum by broth microdilution method; format: functional; conditions: time 16-20 hrs
[29] = test system: Staphylococcus aureus; assay: Antibacterial activity against Staphylococcus aureus ATCC 29213 at pH 8.6 incubated for 16 to 20 hrs in absence of foetal bovine serum by broth microdilution method; format: functional; conditions: time 16-20 hrs
[30] = test system: Escherichia coli; assay: Antibacterial activity against Escherichia coli ATCC 25922 incubated for 16 to 20 hrs in presence of 5% foetal bovine serum by broth microdilution method; format: functional; conditions: time 16-20 hrs
[31] = test system: Streptococcus dysgalactiae; assay: Antibacterial activity against Streptococcus dysgalactiae incubated for 16 to 20 hrs by broth microdilution method; format: functional; conditions: time 16-20 hrs
[32] = test system: Escherichia coli; assay: Antibacterial activity against Escherichia coli ATCC 25922 incubated for 16 to 20 hrs using 10^5 CFU/ml bacterial inoculum by broth microdilution method; format: functional; conditions: time 16-20 hrs
[33] = test system: Staphylococcus aureus; assay: Antibacterial activity against Staphylococcus aureus ATCC 29213 incubated for 16 to 20 hrs using 10^3 CFU/ml bacterial inoculum by broth microdilution method; format: functional; conditions: time 16-20 hrs
[34] = test system: Staphylococcus aureus; assay: Antibacterial activity against Staphylococcus aureus incubated for 16 to 20 hrs by broth microdilution method; format: functional; conditions: time 16-20 hrs
[35] = test system: Klebsiella pneumoniae; assay: Antibacterial activity against Klebsiella pneumoniae ATCC 13883 incubated for 16 to 20 hrs by broth microdilution method; format: functional; conditions: time 16-20 hrs
[36] = test system: Staphylococcus aureus; assay: Antibacterial activity against Staphylococcus aureus ATCC 29213 incubated for 16 to 20 hrs using 10^6 CFU/ml bacterial inoculum by broth microdilution method; format: functional; conditions: time 16-20 hrs
[37] = test system: Escherichia coli; assay: Antibacterial activity against Escherichia coli ATCC 25922 incubated for 16 to 20 hrs in presence of 25% foetal bovine serum by broth microdilution method; format: functional; conditions: time 16-20 hrs

SMILES	MIC [2]	MIC [3]	MIC [6]	MIC [8]	MIC [10]	MIC [11]	MIC [12]	MIC [13]	MIC [15]	MIC [16]	MIC [17]	MIC [18]	MIC [19]	MIC [20]	MIC [21]	MIC [22]	MIC [23]	MIC [31]	MIC [34]	MIC [35]	also measured
CC[C@H]1OC(=O)C[C@@H](O)[C@H](C)[C@@H](O[C@@H]2O[C@H](C)[C@@H](O)[C@H](N(C)C)[C@H]2O)[C@@H](CCN2CCCCC2)C[C@@H](C)C(=O)/C=C/C(C)=C/[C@@H]1CN1CCCCC1 [TILDIPIROSIN]	4 µg/mL	16 µg/mL (≈ 21.8 µM)	2 µg/mL (≈ 2.72 µM)	2 µg/mL (≈ 2.72 µM)	16 µg/mL (≈ 21.8 µM)	4 µg/mL (≈ 5.45 µM)	1 µg/mL (≈ 1.36 µM)	16 µg/mL (≈ 21.8 µM)	8 µg/mL	16 µg/mL	1 µg/mL (≈ 1.36 µM)	0.5 µg/mL (≈ 0.681 µM)	2 µg/mL (≈ 2.72 µM)	1 µg/mL (≈ 1.36 µM)	16 µg/mL (≈ 21.8 µM)	2 µg/mL	32 µg/mL (≈ 43.6 µM)	32 µg/mL (≈ 43.6 µM)	32 µg/mL (≈ 43.6 µM)	8 µg/mL (≈ 10.9 µM)	Activity [1]: Active; Ratio [4]: >2; Ratio [5]: 4; MBC [7]: 4 µg/mL (≈ 5.45 µM); MBC [9]: > 32 µg/mL; MIC [14]: 16 µg/mL (≈ 21.8 µM); MIC [24]: 2 µg/mL (≈ 2.72 µM); inhibition [25]: 26.5%; MIC [26]: 16 µg/mL; MIC [27]: 4 µg/mL (≈ 5.45 µM); MIC [28]: 4 µg/mL; MIC [29]: 4 µg/mL (≈ 5.45 µM); MIC [30]: 2 µg/mL; MIC [32]: 1 µg/mL (≈ 1.36 µM); MIC [33]: 0.5 µg/mL (≈ 0.681 µM); MIC [36]: 4 µg/mL (≈ 5.45 µM); MIC [37]: 4 µg/mL
CC[C@H]1OC(=O)C[C@@H](O)[C@H](C)[C@@H](O[C@@H]2O[C@H](C)[C@@H](O)[C@H](N(C)C)[C@H]2O)[C@@H](CCN(Cc2ccccc2)Cc2cn(-c3cnc4ccccc4c3)nn2)C[C@@H](C)C(=O)/C=C/C(C)=C/[C@@H]1CO		4 µg/mL (≈ 4.46 µM)			0.25 µg/mL (≈ 0.279 µM)	4 µg/mL (≈ 4.46 µM)	8 µg/mL (≈ 8.92 µM)	8 µg/mL (≈ 8.92 µM)							32 µg/mL (≈ 35.7 µM)		4 µg/mL (≈ 4.46 µM)	0.5 µg/mL (≈ 0.557 µM)	0.5 µg/mL (≈ 0.557 µM)	8 µg/mL (≈ 8.92 µM)	
CC[C@H]1OC(=O)C[C@@H](O)[C@H](C)[C@@H](O[C@@H]2O[C@H](C)[C@@H](O[C@H]3C[C@@](C)(O)[C@@H](O)[C@H](C)O3)[C@H](N(C)C)[C@H]2O)[C@@H](CC=O)C[C@@H](C)C(=O)/C=C/C(C)=C/[C@@H]1CO[C@@H]1O[C@H](C)[C@@H](O)[C@@H](OC)[C@H]1OC [TYLOSIN]	> 32 µg/mL	0.5 µg/mL (≈ 0.546 µM)	0.5 µg/mL (≈ 0.546 µM)	> 32 µg/mL	0.5 µg/mL (≈ 0.546 µM)	32 µg/mL (≈ 34.9 µM)	> 32 µg/mL	> 32 µg/mL	> 32 µg/mL	> 32 µg/mL	> 32 µg/mL	> 32 µg/mL	> 32 µg/mL	0.5 µg/mL (≈ 0.546 µM)	> 32 µg/mL	> 32 µg/mL	1 µg/mL (≈ 1.09 µM)	1 µg/mL (≈ 1.09 µM)	0.25 µg/mL (≈ 0.273 µM)	> 32 µg/mL	MIC [24]: > 32 µg/mL; MIC [26]: > 32 µg/mL; MIC [27]: 1 µg/mL (≈ 1.09 µM); MIC [28]: > 32 µg/mL; MIC [29]: 2 µg/mL (≈ 2.18 µM); MIC [30]: > 32 µg/mL; MIC [32]: > 32 µg/mL; MIC [33]: 0.5 µg/mL (≈ 0.546 µM); MIC [36]: 1 µg/mL (≈ 1.09 µM); MIC [37]: > 32 µg/mL
NC[C@H]1O[C@H](O[C@H]2[C@H](O)[C@@H](O[C@H]3O[C@H](CO)[C@@H](O)[C@H](N)[C@H]3O)[C@H](N)C[C@@H]2N)[C@H](N)C[C@@H]1O [TOBRAMYCIN]		2 µg/mL (≈ 4.28 µM)			8 µg/mL (≈ 17.1 µM)	32 µg/mL (≈ 68.4 µM)	8 µg/mL (≈ 17.1 µM)	> 32 µg/mL							16 µg/mL (≈ 34.2 µM)		32 µg/mL (≈ 68.4 µM)	16 µg/mL (≈ 34.2 µM)	1 µg/mL (≈ 2.14 µM)	8 µg/mL (≈ 17.1 µM)	
